Measurements as given in patent US11767322B2 (BRISTOL-MYERS SQUIBB COMPANY, priority 2020, dated 2023).
pIC50: −log10 of the molar value. Read-outs that look alike come from different tables or passages of the source.

Legend:
[1] = system: MLKL phosphorylation in HT29-L23 human colorectal adenocarcinoma cells; assay: MLKL phosphorylation high-content assay; format: cell-based
[2] = target: T1, His-GST-TVMV-hRIPK1(1-324) (Homo sapiens, UniProt Q13546); assay: biochemical; format: binding; details: read-out: RIPK1 IC50
T1 construct: The coding region of human RIPK1(1-324) flanked by NdeI site at 5′ end; made in house; host or cells: Spodoptera frugiperda Sf9 insect cells (baculovirus, Bac-to-Bac)
T1 sequence (Q13546 1-324): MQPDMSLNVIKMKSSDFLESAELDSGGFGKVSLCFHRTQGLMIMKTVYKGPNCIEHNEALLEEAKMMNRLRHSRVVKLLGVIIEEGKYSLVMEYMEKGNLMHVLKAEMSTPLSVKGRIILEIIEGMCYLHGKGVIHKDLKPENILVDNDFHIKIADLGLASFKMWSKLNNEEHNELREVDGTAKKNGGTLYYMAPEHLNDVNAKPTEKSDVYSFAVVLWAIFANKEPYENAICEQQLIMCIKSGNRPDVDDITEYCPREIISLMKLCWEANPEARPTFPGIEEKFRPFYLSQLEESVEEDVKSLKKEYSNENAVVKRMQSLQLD

[3] = read-out: pMLKL IC50, HT29-L23 cells, necroptosis induced with TNFα, SMAC mimetic and Z-VAD, 6 h, maximal inhibition defined by Nec1s
[4] = HTRF probe displacement, 1 h at rt
[5] = Homo sapiens, 6 h, read-out: pMLKL IC50, HT29-L23 cells, necroptosis induced with TNFα, SMAC mimetic and Z-VAD, 6 h, maximal inhibition defined by Nec1s

Compound `Cc1cccc(C(O)C(F)(F)CNC(=O)c2c(Cl)ccc(-c3ccn4nc(N)nc4c3)c2F)c1` (stereo not shown) [Example 174, 3-(2-amino-[1,2,4]triazolo[1,5-a]pyridin-7-yl)-6-chloro-N-(2,2-difluoro-3-hydroxy-3-(m-tolyl)propyl)-2-fluorobenzamide] has a pIC50 [1, 3] of 8.85 and a pIC50 [2, 4] of 8.55.

`Cc1nc(C)c(-c2ccn3nc(N)nc3c2)cc1C(=O)NCC(O)Cc1ccccc1` (stereo not shown) [Example 174] gave a pIC50 ([1]; Homo sapiens, Table 23, representative compounds from WO2018/148626, read-out: pMLKL IC50) of 6.69 and a pIC50 ([2]; Table 23, representative compounds from WO2018/148626) of 7.32.

With `Cc1cccc(C(O)C(F)(F)CNC(=O)c2c(Cl)ccc(-c3ccn4nc(N)nc4c3)c2F)c1` (stereo not shown) [Example 175, 3-(2-amino-[1,2,4]triazolo[1,5-a]pyridin-7-yl)-6-chloro-N-(2,2-difluoro-3-hydroxy-3-(m-tolyl)propyl)-2-fluorobenzamide] the pIC50 [1, 3] was 8.11 and the pIC50 [2, 4] was 8.57.

For `Nc1nc2cc(-c3ccc(Cl)c(C(=O)NCC(F)(F)C(O)c4cc(Cl)ccc4F)c3F)ccn2n1` (stereo not shown) [Example 180, 3-(2-amino-[1,2,4]triazolo[1,5-a]pyridin-7-yl)-6-chloro-N-(3-(5-chloro-2-fluorophenyl)-2,2-difluoro-3-hydroxypropyl)-2-fluorobenzamide], the pIC50 [1, 3] was 8.00 and the pIC50 [2, 4] was 8.70.

`Nc1nc2cc(-c3ccc(Cl)c(C(=O)NCC(F)(F)C(O)c4cc(Cl)ccc4F)c3F)ccn2n1` (stereo not shown) [Example 181, 3-(2-amino-[1,2,4]triazolo[1,5-a]pryidin-7-yl)-6-chloro-N-(3-(5-chloro-2-fluorophenyl)-2,2-difluoro-3-hydroxypropyl)-2-fluorobenzamide] was tested, and the pIC50 [1, 3] was 9.52 and the pIC50 [2, 4] was 8.77.

`Cc1ccc(C(O)C(F)(F)CNC(=O)c2c(Cl)ccc(-c3ccn4nc(N)nc4c3)c2F)c(F)c1` (stereo not shown) [Example 182, 3-(2-amino-[1,2,4]triazolo[1,5-a]pyridin-7-yl)-6-chloro-N-(2,2-difluoro-3-(2-fluoro-4-methylphenyl)-3-hydroxypropyl)-2-fluorobenzamide] was tested, and the pIC50 [1, 3] was 8.54 and the pIC50 [2, 4] was 8.92.

In the case of `Cc1ccc(C(O)C(F)(F)CNC(=O)c2c(Cl)ccc(-c3ccn4nc(N)nc4c3)c2F)c(F)c1` (stereo not shown) [Example 183, 3-(2-amino-[1,2,4]triazolo[1,5-a]pyridin-7-yl)-6-chloro-N-(2,2-difluoro-3-(2-fluoro-4-methylphenyl)-3-hydroxypropyl)-2-fluorobenzamide], the pIC50 [1, 3] was 9.00 and the pIC50 [2, 4] was 9.40.

`Nc1nc2cc(-c3ccc(Cl)c(C(=O)NCC(F)(F)C(O)c4cccc(Cl)c4)c3F)ccn2n1` (stereo not shown) [Example 192, 3-(2-amino-[1,2,4]triazolo[1,5-a]pyridin-7-yl)-6-chloro-N-(3-(3-chlorophenyl)-2,2-difluoro-3-hydroxypropyl)-2-fluorobenzamide] showed a pIC50 [1, 3] of 8.92 and a pIC50 [2, 4] of 8.46.

With `Nc1nc2cc(-c3ccc(Cl)c(C(=O)NCC(F)(F)C(O)c4cccc(Cl)c4)c3F)ccn2n1` (stereo not shown) [Example 193, 3-(2-amino-[1,2,4]triazolo[1,5-a]pyridin-7-yl)-6-chloro-N-(3-(3-chlorophenyl)-2,2-difluoro-3-hydroxypropyl)-2-fluorobenzamide] the pIC50 [1, 3] was 7.82 and the pIC50 [2, 4] was 8.06.

`Nc1nc2cc(-c3ccc(Cl)c(C(=O)NCC(F)(F)Cc4ccc(F)cc4)c3F)ccn2n1` [Example 207, 3-(2-amino-[1,2,4]triazolo[1,5-a]pyridin-7-yl)-6-chloro-N-(2,2-difluoro-3-(4-fluorophenyl)propyl)-2-fluorobenzamide] was tested, and the pIC50 [1, 5] was 9.22 and the pIC50 [2, 4] was 8.74.

In the case of `Cc1ccc(-c2ccn3nc(N)nc3c2)c(F)c1C(=O)NCC(F)(F)Cc1ccc(F)cc1` [Example 208, 3-(2-amino-[1,2,4]triazolo[1,5-a]pyridin-7-yl)-N-(2,2-difluoro-3-(4-fluorophenyl)propyl)-2-fluoro-6-methylbenzamide], the pIC50 [1, 5] was 9.70 and the pIC50 [2, 4] was 8.59.

In the case of `[2H]C([2H])([2H])c1ccc(-c2ccn3nc(N)nc3c2)c(F)c1C(=O)NC[C@H](F)[C@](C)(O)c1ccc(F)cc1` [Example 215, 3-(2-amino-[1,2,4]triazolo[1,5-a]pyridin-7-yl)-2-fluoro-N-((1S,3R)-2-fluoro-3-(4-fluorophenyl)-3-hydroxybutyl)-6-(methyl-d3)benzamide], the pIC50 [1, 5] was 8.18 and the pIC50 [2, 4] was 8.06.

Work on `[2H]C([2H])([2H])c1ccc(-c2ccn3nc(N)nc3c2)c(F)c1C(=O)NC[C@@H](F)[C@@](C)(O)c1ccc(F)cc1` [Example 216, 3-(2-amino-[1,2,4]triazolo[1,5-a]pyridin-7-yl)-2-fluoro-N-((2R,3S)-2-fluoro-3-(4-fluorophenyl)-3-hydroxybutyl)-6-(methyl-d3)benzamide] yielded a pIC50 [1, 5] of 9.40 and a pIC50 [2, 4] of 8.33.

`Cc1ccc(-c2ccn3nc(N)nc3c2)c(F)c1C(=O)NCC(F)(F)C(C)(O)c1ccc(C(F)(F)F)cc1` (stereo not shown) [Example 227, 3-(2-amino-[1,2,4]triazolo[1,5-a]pyridin-7-yl)-N-(2,2-difluoro-3-hydroxy-3-(4-(trifluoromethyl)phenyl)butyl)-2-fluoro-6-methylbenzamide] showed a pIC50 [1, 5] of 9.15 and a pIC50 [2, 4] of 7.82.

Work on `Cc1ccc(-c2ccn3nc(N)nc3c2)c(F)c1C(=O)NCCC(C)(F)c1ccc(Cl)cc1` (stereo not shown) [Example 228, 3-(2-amino-[1,2,4]triazolo[1,5-a]pyridin-7-yl)-N-(3-(4-chlorophenyl)-3-fluorobutyl)-2-fluoro-6-methylbenzamide] yielded a pIC50 [1, 5] of 9.00 and a pIC50 [2, 4] of 9.05.

Compound `Nc1nc2cc(-c3ccc(Cl)c(C(=O)NCC(F)(F)C4(c5ccc(F)cc5)COC4)c3F)ccn2n1` [Example 245, 3-(2-amino-[1,2,4]triazolo[1,5-a]pyridin-7-yl)-6-chloro-N-(2,2-difluoro-2-(3-(4-fluorophenyl)oxetan-3-yl)ethyl)-2-fluorobenzamide] has a pIC50 [1, 5] of 8.43 and a pIC50 [2, 4] of 7.72.

`Cc1ccc(-c2ccn3nc(N)nc3c2)c(F)c1C(=O)NCC(F)(F)C1(c2ccc(F)cc2)COC1` [Example 246, 3-(2-amino-[1,2,4]triazolo[1,5-a]pyridin-7-yl)-N-(2,2-difluoro-2-(3-(4-fluorophenyl)oxetan-3-yl)ethyl)-2-fluoro-6-methylbenzamide] was tested, and the pIC50 [1, 5] was 8.66 and the pIC50 [2, 4] was 7.82.

With `Nc1nc2cc(-c3ccc(Cl)c(C(=O)NCC(F)(F)C(O)C4CCC(F)(F)CC4)c3F)ccn2n1` (stereo not shown) [Example 257, 3-(2-amino-[1,2,4]triazolo[1,5-a]pyridin-7-yl)-6-chloro-N-(3-(4,4-difluorocyclohexyl)-2,2-difluoro-3-hydroxypropyl)-2-fluorobenzamide] the pIC50 [1, 5] was 8.23 and the pIC50 [2, 4] was 8.05.

`COC(=O)c1ccc(CCCNC(=O)c2c(Cl)ccc(-c3ccn4nc(N)nc4c3)c2F)cc1` [Example 273, methyl 4-(3-(3-(2-amino-[1,2,4]triazolo[1,5-a]pyridin-7-yl)-6-chloro-2-fluorobenzamido)propyl)benzoate] was tested, and the pIC50 [1, 5] was 7.43 and the pIC50 [2, 4] was 8.41.

`Cc1ccc(-c2ccn3nc(N)nc3c2)c(F)c1C(=O)NCC(F)(F)C(O)(c1ccc(F)cc1)C(F)F` (stereo not shown) [Example 274, 3-(2-amino-[1,2,4]triazolo[1,5-a]pyridin-7-yl)-2-fluoro-6-methyl-N-(2,2,4,4-tetrafluoro-3-(4-fluorophenyl)-3-hydroxybutyl)benzamide] showed a pIC50 [1, 5] of 9.15 and a pIC50 [2, 4] of 7.72.

With `Cc1ccc(-c2ccn3nc(N)nc3c2)c(F)c1C(=O)NCC(F)(F)C(N)c1ccc(F)cc1` (stereo not shown) [Example 275, N-(3-amino-2,2-difluoro-3-(4-fluorophenyl)propyl)-3-(2-amino-[1,2,4]triazolo[1,5-a]pyridin-7-yl)-2-fluoro-6-methylbenzamide] the pIC50 [1, 5] was 8.82 and the pIC50 [2, 4] was 8.19.

Compound `Cc1ccc(-c2ccn3nc(N)nc3c2)c(F)c1C(=O)NCC(F)(F)[C@@H](OC(N)=O)c1ccc(F)cc1` [Example 276, (S)-3-(3-(2-amino-[1,2,4]triazolo[1,5-a]pyridin-7-yl)-2-fluoro-6-methylbenzamido)-2,2-difluoro-1-(4-fluorophenyl)propyl carbamate] has a pIC50 [1, 5] of 8.08 and a pIC50 [2, 4] of 8.43.

`Nc1nc2cc(-c3ccc(OC(F)F)c(C(=O)NCC(F)(F)[C@@H](O)c4ccc(F)cc4)c3F)ccn2n1` [Example 306, (S)-3-(2-amino-[1,2,4]triazolo[1,5-a]pyridin-7-yl)-N-(2,2-difluoro-3-(4-fluorophenyl)-3-hydroxypropyl)-6-(difluoromethoxy)-2-fluorobenzamide] gave a pIC50 [1, 5] of 8.38 and a pIC50 [2, 4] of 7.96.

`Nc1nc2cc(-c3ccc(C(F)(F)F)c(C(=O)NCC(F)(F)[C@@H](O)c4ccc(F)cc4)c3F)ccn2n1` [Example 315, (S)-3-(2-amino-[1,2,4]triazolo[1,5-a]pyridin-7-yl)-N-(2,2-difluoro-3-(4-fluorophenyl)-3-hydroxypropyl)-2-fluoro-6-(trifluoromethyl)benzamide] gave a pIC50 [1, 5] of 9.40 and a pIC50 [2, 4] of 8.16.

With `Cc1ccc(-c2ccn3nc(N)nc3c2C)c(F)c1C(=O)NCC[C@H](O)c1ccc(Cl)cc1` [compound 134] the pIC50 [1, 5] was 8.82 and the pIC50 [2, 4] was 8.54.

Work on “(R)-3-(2-amino-[1,2,4]triazolo[1,5-a]pyridin-7-yl)-6-cyclopropyl-N-(2,2-difluoro-3-(4-fluorophenyl)-3-hydroxypropyl)-2-fluorobenzamide [Example 305]” yielded a pIC50 ([1]; HT29-L23 cells, necroptosis induced with TNFα, SMAC mimetic and Z-VAD, 6 h, maximal inhibition defined by Nec1s, read-out: pMLKL IC50) of 9.22 and a pIC50 [2, 4] of 8.80.
